Columns and labels:
B16F10 melanoma cells = experiment: Cryo ablation of established B16F10 tumors plus peri-tumoral immunopotentiator, re-challenge after 40 days, Kaplan-Meier survival; format: in vivo, C57BL/6n mice; conditions: cryo ablation combined with immunopotentiator; for survival rate after 60 days: 30 μg p.t. within 30 min. after ablation, re-challenge with 15*10^3 B16F10 cells s.c. 40 days after ablation; for protection from tumor outgrowth (re-challenge, Kaplan-Meier): re-challenge 40 days later, result in words
Description: C57BL/6n mice (6-8 weeks old) were purchased from Charles River Wiga (Sulzfeld, Germany) and maintained under specific pathogen-free barrier conditions at the Central Animal Laboratory (Nijmegen, The Netherlands). Drinking water and standard laboratory food pellets were provided ad libitum and mice were allowed to settle for at least 1 week before random assignment into specific treatment groups. The experiments were performed according to the guidelines for animal care of the Nijmegen Animal Experiments Committee.
The murine melanoma cell line B16F10 (ATCC) was cultured in complete medium (MEM, 5% fetal bovine serum (Greiner Bio-one), 100 U/ml penicillin G sodium and 100 μg/ml streptomycin (Pen/Strep), MEM sodium pyruvate (1 mM), NaHCO3, MEM vitamins, MEM non-essential amino acids (all from Gibco), 20 μM β-mercaptoethanol (β-ME)).
B16F10 melanoma cells were suspended in a mixture of PBS and Matrigel (2:1), and 0.5*10^6 cells in a total volume of 50 μl were injected s.c. at the right femur. When tumor diameters measured between 6-8 mm (generally at day 9-10) they were randomly assigned to treatment groups. Cryo ablation (Cryo) was performed under isoflurane/O2/N2O anesthesia using a liquid nitrogen cryo ablation system (CS76, Frigitronics, Shelton, Conn.) of which the tip is cooled by a continuous flow of circulating liquid nitrogen. During 2 treatment cycles of freezing and thawing the tumor was macroscopically frozen, while leaving surrounding healthy tissue intact. To monitor the induction of long-lasting tumor protection, mice were re-challenged with 15*10^3 B16F10 cells 40 days after cryo ablation. Re-challenges were injected in 100 μl PBS s.c. on the right flank. Mice were sacrificed when tumor volume exceeded 1000 mm^3 or when tumors brake through the skin barrier.
CpG 1668 (‘5-[…]-3’) with total phosphorothioate-modified backbone was purchased from Sigma Genosys (Haverhill, UK). C-di-GMP was synthesized as described by Spehr V, Warrass R, Höcherl K, Ilg T., in Appl. Biochem. Biotechnol. 2011 Oct;165(3-4):761-75. CpG and/or C-di-GMP were peri-tumorally injected in PBS (p.t., 30 μg divided over 2 injections of 20 μl lining the ablated tumor). All injections were done within 30 min. after ablation.
(§1) Kaplan Meier survival curves were analyzed using a log rank test. Cytokine data was analyzed using ANOVA with a post-hoc Bonferroni test.
FIG. 1. Anti-tumor memory response following ablation combined with C-di-GMP and CpG. Established B16F10 tumors growing subcutaneously on the right femur were treated with cryo ablation alone, or combined with the indicated immunopotentiators Immunopotentiators ([…]) were injected in 40 μl PBS in the peri-tumoral area following the ablation. […]

[1] = tested on: Mouse bone marrow dendritic cells; experiment: Type-I IFN production by bone marrow dendritic cells, bioassay using L929 ISRE reporter cells; format: cell-based; conditions: overnight incubation of 1.2×10^5 DCs; CpG 1 μg/ml, c-GMP 10 μg/ml, c-di-GMP 10 μg/ml
Description: (§2) Mouse bone marrow dendritic cells were cultured with granulocyte-macrophage colony-stimulating factor (GM-CSF) and harvested at day 7 of culture. 1.2×10^5 cells were exposed during overnight incubation to the following immunopotentiators: CpG 1668 1 μg/ml, c-GMP 10 μg/ml, c-di-GMP 10 μg/ml. Next, supernatant was carefully harvested and IL12 or type-I IFN production was determined. For IL12 an ELISA method was used according to the manufacturer's instructions (BD Biosciences). Type-I IFN was determined by a standard bioassay using L929 ISRE reporter cells.
as §1
(§3) FIG. 2. Synergistic type I IFN production by DCs upon combined treatment with c-di-GMP and CpG. Mouse bone marrow dendritic cells were cultured with GM-CSF and harvested at day 7 of culture. 1.2×10^5 cells were exposed during overnight incubation to the indicated immmunopotentiators or combinations of immunopotentiators: CpG 1 μg/ml, c-GMP 10 μg/ml, c-di-GMP 10 μg/ml. Next, supernatant was harvested and type I IFN production was determined by a standard bioassay using L929 ISRE cells. Results are shown as means with sem, *=p<0.001 vs. all other bars. Similar results were obtained in three independent experiments.

[2] = tested on: Mouse bone marrow dendritic cells; experiment: IL12 production by bone marrow dendritic cells, ELISA; format: cell-based; conditions: overnight incubation of 1.2×10^5 DCs; CpG 1 μg/ml, c-GMP 10 μg/ml, c-di-GMP 10 μg/ml
Description: as §2, §1
as §3, with “3.” for “2.”, “IL12” for “type I IFN”, “indicated” for “indicated immmunopotentiators or combinations of”, “by” for “by a”, “ELISA methods.” for “bioassay using L929 ISRE cells.”, “*=p<0.001.” for “*=p<0.001 vs. all other bars.”

human colon cancer cell = conditions: in vitro; cited from earlier work

Row | Compound | survival rate after 60 days (B16F10 melanoma cells) | protection from tumor outgrowth (re-challenge, Kaplan-Meier) (B16F10 melanoma cells) | type I IFN production (in words) [1] | IL12 production (in words) [2] | type I IFN production [1] | effect on basal and GF-stimulated cancer cell proliferation (human colon cancer cell)
1 | 5-TCCATGACGTTCCTGATGCT-3 (DNA, all phosphorothioate, methylation of C not given here) [CpG 1668, CpG ODN 20-mer, TLR9 agonist, purchased from Sigma Genosys] | approx. 50% | increased protection from tumor outgrowth | no IFN or only modest amounts of IFN | modest level of IL12 production | – | –
2 | Nc1nc2c(ncn2[C@@H]2O[C@@H]3COP(=O)(O)O[C@H]3[C@H]2O)c(=O)[nH]1 [c-GMP] | – | – | no IFN or only modest amounts of IFN | do not produce IL12 | – | –
3 | Nc1nc2c(ncn2C2OC3COP(=O)(O)OC4C(COP(=O)(O)OC3C2O)OC(n2cnc3c(=O)[nH]c(N)nc32)C4O)c(=O)[nH]1 (centres unmarked) [c-di-GMP, 3′,5′-cyclic diguanylic acid] | approx. 50% | increased protection from tumor outgrowth | – | do not produce IL12 | < 50 U/ml | inhibitory effect
